Molecular target: T1, human Edg-1 receptor (Homo sapiens, UniProt P21453)
T1 construct: FLAG (N); expressed in transfected cells; membrane preparation
Assay: GTP-γ-S assay using human Edg-1 receptors (scintillation proximity assay, CHO Flp-In cell membrane preparation)
Assay type: biochemical
Conditions: test compound 10 μM; 10 μM S1P regarded as 100% activation; background-corrected; triplicate
Text: Determination of the Pharmacological Activity A) GTP-γ-S Assay Using Human Edg-1 Receptors In order to determine the Edg-1 receptor activation by the compounds of the invention, a GTP-γ-S ((GTP-γ-S=guanosine 5′-[thio]triphosphate) assay for G-protein coupled receptor binding based on the scintillation proximity assay principle was used, employing a cell membrane preparation from a CHO Flp-In cell line which constitutively overexpresses the human Edg-1 receptor. The Flp-In™ expression system (Invitrogen/Life Technologies™ cat. no. K6010-01) allows the generation of stable mammalian cell lines into which the gene of interest has been integrated through […] at a specific genomic location called Flp Recombination Target (FRT) site by means of a Flp recombinase encoded by the pOG44 expression plasmid. […] The EDG-1 membrane preparation obtained in (b) was initially used in a commercial scintillation proximity assay kit (Amersham/GE Healthcare, cat. no. RPNQ0210) to quantify the receptor activation. Here, the ligand-induced binding of ^35S-radiolabeled GTP-γ-S to the receptor-containing membrane causes the emission of light in the scintillation beads attached to the membrane preparation, which allows quantification of the in vitro activity of the Edg-1-agonistic compound. […]

T1 sequence (P21453 whole entry): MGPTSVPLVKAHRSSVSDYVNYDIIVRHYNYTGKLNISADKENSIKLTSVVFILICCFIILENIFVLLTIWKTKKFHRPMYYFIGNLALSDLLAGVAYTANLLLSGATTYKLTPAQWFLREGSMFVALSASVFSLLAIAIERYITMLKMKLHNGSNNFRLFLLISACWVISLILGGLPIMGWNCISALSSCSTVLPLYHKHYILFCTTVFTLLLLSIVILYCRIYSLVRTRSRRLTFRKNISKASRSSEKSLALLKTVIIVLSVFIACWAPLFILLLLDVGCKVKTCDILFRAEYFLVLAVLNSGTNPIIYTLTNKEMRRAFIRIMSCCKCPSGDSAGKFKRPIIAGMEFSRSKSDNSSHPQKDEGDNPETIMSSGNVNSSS

Edg-1 receptor activation by example compounds at 10 μM in percent of the activation by 10 μM S1P (% activation) [%]	SMILES
116	Cc1cc(-c2nc3cnc(Oc4cccc(Cl)c4)nc3o2)cc(C)c1OC1CC(C(=O)O)C1 (centres unmarked) [Example 1, 3-{4-[5-(3-Chlorophenoxy)oxazolo[5,4-d]pyrimidin-2-yl]-2,6-dimethylphenoxy}cyclobutanecarboxylic acid]
83	Cc1cc(-c2nc3cnc(Oc4ccccc4F)nc3o2)cc(C)c1OC1CC(C(=O)O)C1 (centres unmarked) [Example 2, 3-{4-[5-(2-Fluorophenoxy)oxazolo[5,4-d]pyrimidin-2-yl]-2,6-dimethylphenoxy}cyclobutanecarboxylic acid]

— patent publication US8735402B2, “Cycloalkyloxycarboxylic acid derivatives” (Sanofi, priority 2011, dated 2014)
